Data published in publication PMC5951806, “Rapid labelling and covalent inhibition of intracellular native proteins using ligand-directed N-acyl-N-alkyl sulfonamide” (Nature Communications, 2018).

What was measured:
endogenous Hsp90 = assay: Chemical labelling of endogenous Hsp90 in SKBR3 cells (in-gel fluorescence); format: cell-based, human; conditions: 3 h
proteins of SKBR3 cells = assay: Identification of 11-labelled proteins in live cells (TMT quantitative LC-MSMS), all proteins; format: cell-based, human; conditions: 0.5 µM, 3 h, three ligand-specific targets and three off-targets
Source text: (§1) The labelled proteins were enriched by immunoprecipitation with an anti-fluorescein antibody and tryptically digested in gel. Digested peptides were modified with Light- (L-), Medium- (M-), or Heavy- (H-) TMT reagent for samples treated with 11, 11 with PU-H71 (as competitive condition), or DMSO (vehicle), respectively, and mixed in a 1:1:1 ratio for LC-MSMS analysis. We performed three experimental replicates, in which proteins detected and quantified at least twice were selected as identified proteins. According to the related approach of Cravatt et al[44], the proteins having L/H (11/DMSO) ratios >5 were defined as 11-labelled proteins. […] On the basis of these criteria, we identified 6 proteins that react with 11, including three ligand-specific targets (Hsp90α (HSP90AA1), Hsp90β (HSP90AB1), and Grp94 (HSP90B1)) and three off-targets (Trifunctional enzyme subunit α (HADHA), Tubulin-α (TUBA1B), and ADP/ATP translocase 3 (SLC25A6)) (Fig. 5d, e and Supplementary Data 1). […] Grp94, a HSP90 isomer, was previously reported to be a PU-H71 specific target. TRAP-1, another Hsp90 isomer that can bind PU-H71, on the other hand, was not identified as 11-target by our criteria.
SKBR3 human breast cancer cells (2.0 × 10^6 cells) were seeded on a 10 cm dish and cultured for 3 days in McCoy’s 5A in a 5% CO2 humidified chamber at 37 °C. […]

[1] = test system: Isoform 2 of Transketolase (TKT); assay: TMT LC-MSMS of 11-labelled proteins; format: cell-based, Homo sapiens
Source text: as §1
(§2) SKBR3 human breast cancer cells (2.0 × 10^6 cells) were seeded on a 10 cm dish and cultured for 3 days in McCoy’s 5A in a 5% CO2 humidified chamber at 37 °C. […] As competitive experiments, the labelling was conducted in the presence of PU-H71 (10 µM). After labelling, the cells were washed twice with PBS, and lysed with RIPA buffer. […] The supernatant was mixed with chilled acetone and incubated overnight at −80 °C. The protein precipitates were solubilized by sonication in 1 mL of RIPA buffer containing 1% SDS, and then 10-fold diluted with RIPA buffer to reduce SDS concentration to c.a. 0.1%. The protein solution (containing 1 mg of protein) was mixed with Protein G Sepharose 4 Fast Flow (GE Healthcare) and rotated at 4 °C for 1 h. After removal of the beads, the remaining supernatant was mixed with anti-fluorescein antibody (Abcam, ab19491, 7:10000) and rotated at 4 °C for 1 h, followed by addition of fresh Protein G Sepharose 4 Fast Flow and further incubation at 4 °C for 4 h. The beads were washed five times with RIPA buffer and once with PBS. Proteins were eluted from the beads by addition of 2 × sample buffer containing 100 mM DTT and boiling at 95 °C for 5 min. The samples were subjected to a 7.5% SDS–PAGE gel (Mini-PROTEAN TGX Gels, BioRad), and electrophoresed as the migration distance of dye front is about 10 mm. Each lane was excised (height, 10 mm), and treated with a 47.5% methanol / 47.5% pure water / 5% acetic acid for 20 min, a 50% methanol / 50% pure water for 10 min, and in pure water for 10 min. The gel pieces were dehydrated with 100% acetonitrile, and then swelled with 200 μL of 100 mM TEAB (triethylamine bicarbonate) buffer containing 10 mM DTT and heated at 56 °C for 30 min. The solutions were replaced with 200 µL of 100 mM TEAB buffer containing 55 mM iodoacetamide and incubated for 45 min in the dark. The gel pieces were washed with 100 mM TEAB buffer and dehydrated in acetonitrile. This step was repeated once. The gels were reswelled in 100 mM TEAB buffer containing 10 ng/μL Sequencing Grade Trypsin (Promega) and incubated overnight at 37 °C. To the gels, 50 μL of an extraction solution (50% acetonitrile, 0.1% TFA) was added. After 10 min incubation, the supernatants were collected to new tubes, and this process was repeated twice. Extracted peptides were dried in vacuo and reconstituted with 25 μL of 100 mM TEAB buffer.

[2] = test system: Isoform 4 of 4F2 cell-surface antigen heavy chain (SLC3A2); assay: TMT LC-MSMS of 11-labelled proteins; format: cell-based, Homo sapiens
Source text: as §1, §2

[3] = test system: Isoform Long of Glucose-6-phosphate 1-dehydrogenase (G6PD); assay: TMT LC-MSMS of 11-labelled proteins; format: cell-based, Homo sapiens
Source text: as §1, §2

Alpha-actinin-4 (ACTN4) = Alpha-actinin-4 (ACTN4) (Homo sapiens, UniProt O43707); assay: TMT LC-MSMS of 11-labelled proteins; format: cell-based
Alpha-actinin-4 (ACTN4), sequence (O43707 whole entry): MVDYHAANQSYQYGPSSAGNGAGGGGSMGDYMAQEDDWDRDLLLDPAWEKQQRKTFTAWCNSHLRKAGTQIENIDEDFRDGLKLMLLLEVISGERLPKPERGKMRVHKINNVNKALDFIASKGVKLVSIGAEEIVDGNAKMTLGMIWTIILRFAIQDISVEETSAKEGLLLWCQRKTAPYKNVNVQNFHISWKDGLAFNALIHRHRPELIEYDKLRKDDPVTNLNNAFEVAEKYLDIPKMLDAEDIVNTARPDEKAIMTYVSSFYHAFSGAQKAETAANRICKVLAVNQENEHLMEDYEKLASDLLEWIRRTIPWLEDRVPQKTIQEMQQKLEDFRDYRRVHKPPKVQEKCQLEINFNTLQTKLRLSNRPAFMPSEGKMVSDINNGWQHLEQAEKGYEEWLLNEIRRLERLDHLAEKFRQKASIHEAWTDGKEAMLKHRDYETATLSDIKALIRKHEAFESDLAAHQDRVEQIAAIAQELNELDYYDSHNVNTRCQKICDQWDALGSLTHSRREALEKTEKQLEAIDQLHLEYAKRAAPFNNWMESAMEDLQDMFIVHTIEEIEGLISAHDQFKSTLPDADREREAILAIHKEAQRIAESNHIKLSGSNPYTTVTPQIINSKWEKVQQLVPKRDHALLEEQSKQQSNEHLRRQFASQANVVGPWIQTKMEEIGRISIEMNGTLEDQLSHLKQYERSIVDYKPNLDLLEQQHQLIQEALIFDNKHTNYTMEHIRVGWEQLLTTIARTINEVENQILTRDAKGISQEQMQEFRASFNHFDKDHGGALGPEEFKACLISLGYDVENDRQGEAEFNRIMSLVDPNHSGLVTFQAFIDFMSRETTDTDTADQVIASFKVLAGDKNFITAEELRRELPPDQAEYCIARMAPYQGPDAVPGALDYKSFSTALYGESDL
Source text: (§3) Supplement 41467_2018_4343_MOESM4_ESM.xlsx, sheet "Exp2" | column: Abundance Ratio: (11) / (11 with PU-H71); Abundance Ratio: (11) / (DMSO); Abundances (Grouped): 11; Abundances (Grouped): 11 with PU-H71

[4] = biological target: Hemoglobin subunit alpha (HBA2; HBA1) (Homo sapiens, UniProt P69905); assay: TMT LC-MSMS of 11-labelled proteins; format: cell-based
Hemoglobin subunit alpha (HBA2; HBA1), sequence (P69905 2-142 limits assumed): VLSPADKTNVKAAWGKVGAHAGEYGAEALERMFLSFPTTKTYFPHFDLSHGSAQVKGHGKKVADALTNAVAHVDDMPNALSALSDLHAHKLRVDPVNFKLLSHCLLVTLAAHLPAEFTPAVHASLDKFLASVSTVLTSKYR
Source text: as §3

[5] = test system: immunoglobulin gamma-1 heavy chain; assay: TMT LC-MSMS of 11-labelled proteins; format: cell-based, Homo sapiens
Source text: as §3

[6] = sheet Exp1, SKBR3 cells, 11 0.5 µM 3 h vs DMSO
[7] = sheet Exp1, SKBR3 cells, 11 0.5 µM 3 h vs with PU-H71 10 µM
[8] = sheet Merged, SKBR3 cells, 11 0.5 µM 3 h vs DMSO
[9] = sheet Merged, SKBR3 cells, 11 0.5 µM 3 h vs with PU-H71 10 µM

Abundance Ratio: (11) / (11 with PU-H71) (Alpha-actinin-4 (ACTN4); sheet Exp2): 0.876 | Abundance Ratio: (11) / (DMSO) (Alpha-actinin-4 (ACTN4); sheet Exp2): 1.667 | Abundances (Grouped): 11 (Alpha-actinin-4 (ACTN4); sheet Exp2): 24 | Abundances (Grouped): 11 with PU-H71 (Alpha-actinin-4 (ACTN4); sheet Exp2, with PU-H71): 27.4 | Abundance Ratio: (11) / (11 with PU-H71) ([4]; sheet Exp2): 0.752 | Abundance Ratio: (11) / (DMSO) ([4]; sheet Exp2): 2.578 | Abundances (Grouped): 11 ([4]; sheet Exp2): 76.3 | Abundances (Grouped): 11 with PU-H71 ([4]; sheet Exp2, with PU-H71): 101.4
Compound: CC(=O)Oc1ccc2c(c1)Oc1cc(OC(C)=O)ccc1C21OC(=O)c2cc(C(=O)NCCOCCOCCNC(=O)CCCC(=O)N(CC#N)S(=O)(=O)c3ccc(C(=O)NCCCn4c(Sc5cc6c(cc5I)OCO6)nc5c(N)ncnc54)cc3)ccc21 [compound 11]
unspecific reaction at high concentrations (endogenous Hsp90; 1–10 µM, 37 °C): No increase in unspecific | endogenous Hsp90 labelling (endogenous Hsp90; up to ~10 µM): labelled endogenous Hsp90 (both α and β isoforms) | number of proteins that react with 11 (L/H ratios >5) (proteins of SKBR3 cells): 6 | Abundance Ratio: (11) / (11 with PU-H71) ([1]; Exp3, TKT): 0.724 | Abundance Ratio: (11) / (DMSO) ([1]; Exp3, TKT): 1.695 | Abundances (Grouped): 11 ([1]; Exp3, TKT): 45.6 | Abundances (Grouped): 11 with PU-H71 ([1]; Exp3, TKT): 63 | Abundance Ratio: (11) / (DMSO) [1, 6]: 2.131 | Abundance Ratio: (11) / (11 with PU-H71) [1, 7]: 0.917 | Abundance Ratio: (11) / (11 with PU-H71) ([1]; sheet Exp2, TKT): 0.939 | Abundance Ratio: (11) / (DMSO) ([1]; sheet Exp2, TKT): 2.163 | Abundances (Grouped): 11 ([1]; sheet Exp2, TKT): 103.4 | Abundances (Grouped): 11 with PU-H71 ([1]; sheet Exp2, TKT): 110.1 | Abundance Ratio: (11) / (DMSO) [1, 8]: 2.131 | Abundance Ratio: (11) / (11 with PU-H71) [1, 9]: 0.917 | Abundance Ratio: (11) / (11 with PU-H71) ([2]; Exp3, SLC3A2): 0.823 | Abundance Ratio: (11) / (DMSO) ([2]; Exp3, SLC3A2): 3.728 | Abundances (Grouped): 11 ([2]; Exp3, SLC3A2): 115.2 | Abundances (Grouped): 11 with PU-H71 ([2]; Exp3, SLC3A2): 140 | Abundance Ratio: (11) / (DMSO) [2, 6]: 3.951 | Abundance Ratio: (11) / (11 with PU-H71) [2, 7]: 0.737 | Abundance Ratio: (11) / (11 with PU-H71) ([2]; sheet Exp2, SLC3A2): 0.802 | Abundance Ratio: (11) / (DMSO) ([2]; sheet Exp2, SLC3A2): 3.119 | Abundances (Grouped): 11 ([2]; sheet Exp2, SLC3A2): 91.7 | Abundances (Grouped): 11 with PU-H71 ([2]; sheet Exp2, SLC3A2): 114.4 | Abundance Ratio: (11) / (DMSO) [2, 8]: 3.119 | Abundance Ratio: (11) / (11 with PU-H71) [2, 9]: 0.802 | Abundance Ratio: (11) / (DMSO) [3, 6]: 6.472 | Abundance Ratio: (11) / (11 with PU-H71) [3, 7]: 0.948 | Abundance Ratio: (11) / (11 with PU-H71) ([3]; sheet Exp2, G6PD): 0.848 | Abundance Ratio: (11) / (DMSO) ([3]; sheet Exp2, G6PD): 1.663 | Abundances (Grouped): 11 ([3]; sheet Exp2, G6PD): 63.2 | Abundances (Grouped): 11 with PU-H71 ([3]; sheet Exp2, G6PD, with PU-H71): 74.5 | Abundance Ratio: (11) / (DMSO) [3, 8]: 3.281 | Abundance Ratio: (11) / (11 with PU-H71) [3, 9]: 0.897 | Abundance Ratio: (11) / (11 with PU-H71) ([5]; sheet Exp2): 0.821 | Abundance Ratio: (11) / (DMSO) ([5]; sheet Exp2): 0.807 | Abundances (Grouped): 11 ([5]; sheet Exp2): 7483.9 | Abundances (Grouped): 11 with PU-H71 ([5]; sheet Exp2, with PU-H71): 9110.6
